6 compounds from PMC5382325, “Rapid Screening of Potential Phosphodiesterase Inhibitors from the Roots of Ilex pubescens Hook. et Arn. Using a Combination of Ultrafiltration and LC–MS” (Evidence-based Complementary and Alternative Medicine : eCAM, 2017) can be followed below.

Experiment [1] concerns the target T1, Phosphodiesterase I (PDEI) from Crotalus adamanteus venom (Crotalus adamanteus, UniProt J3SEZ3). The format is biochemical. To be noted: read-out: Inhibitory activity (IC50) PDEI.
Another experiment addresses Recombinant human PDE5A (Homo sapiens, UniProt O76074). The experiment can be described thus: PDE inhibition assay against PDE5A (Cyclic Nucleotide Phosphodiesterase Assay Kit, spectrophotometric). The following applies: in vitro; for IC50: read-out: Inhibitory activity (IC50) PDE5A. The format is biochemical.
Experiment [2] has as its target T1, Phosphodiesterase I (PDEI) from Crotalus adamanteus venom. Format: binding.

Values joined by “and” are separate entries in the source; they are usually repeats but may differ in a detail not shown here. Equal entries are not always repeated. Where two headings read alike, the source gives them in different places.

T1 sequence (J3SEZ3 24-851 limits assumed): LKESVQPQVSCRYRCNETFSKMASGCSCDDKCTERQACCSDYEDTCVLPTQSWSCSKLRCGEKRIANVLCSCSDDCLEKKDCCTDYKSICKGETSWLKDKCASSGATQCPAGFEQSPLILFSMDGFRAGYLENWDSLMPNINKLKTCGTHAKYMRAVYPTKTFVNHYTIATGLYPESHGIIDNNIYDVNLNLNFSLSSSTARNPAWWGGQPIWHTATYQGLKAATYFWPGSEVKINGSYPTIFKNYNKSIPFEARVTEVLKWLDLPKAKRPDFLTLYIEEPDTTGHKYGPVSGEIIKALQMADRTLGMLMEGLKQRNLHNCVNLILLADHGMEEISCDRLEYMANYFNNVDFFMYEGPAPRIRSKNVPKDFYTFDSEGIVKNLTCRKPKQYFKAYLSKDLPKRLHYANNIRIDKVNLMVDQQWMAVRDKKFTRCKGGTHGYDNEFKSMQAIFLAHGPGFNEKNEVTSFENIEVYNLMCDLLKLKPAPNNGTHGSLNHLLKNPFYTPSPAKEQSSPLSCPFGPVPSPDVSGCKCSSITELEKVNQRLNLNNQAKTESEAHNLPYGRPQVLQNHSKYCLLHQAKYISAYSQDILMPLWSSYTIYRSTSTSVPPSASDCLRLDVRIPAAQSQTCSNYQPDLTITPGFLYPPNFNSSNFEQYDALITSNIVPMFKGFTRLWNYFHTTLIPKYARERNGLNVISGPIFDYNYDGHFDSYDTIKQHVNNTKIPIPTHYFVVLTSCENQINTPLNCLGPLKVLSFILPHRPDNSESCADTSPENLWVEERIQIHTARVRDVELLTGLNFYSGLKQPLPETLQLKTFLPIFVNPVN

Usually IC50 stands for the concentration at which inhibition is half-maximal. As to `C[C@@H]1O[C@@H](O[C@H]2[C@H](O[C@H]3[C@H](O[C@H]4CC[C@]5(C)[C@H]6CC=C7[C@H]8[C@](C(=O)O)(CC[C@H](C)[C@@]8(C)O)CC[C@@]7(C)[C@]6(C)CC[C@H]5C4(C)C)OC[C@@H](O)[C@@H]3O)O[C@H](CO)[C@@H](O)[C@@H]2O)[C@H](O)[C@H](O)[C@H]1O` [Ilexsaponin B2 (8), Ilexsaponin B2], in experiment [1], the concentration for half-maximal inhibition (IC50) amounted to 478 µM. The IC50 at Recombinant human PDE5A turned out to be 48.8 µM. Also, in experiment [2], the “Binding to PDEI (in words)” value is recorded as “strongest PDEI ligand”; the “Enhancement factor with PDEI” value was 28.73 ± 0.55% and 41.85 ± 0.86%.

`C[C@@H]1CC[C@]2(C(=O)OC3OC(CO)C(O)C(O)C3O)CC[C@]3(C)C(=CCC4[C@@]5(C)CC[C@H](O)[C@](C)(C(=O)O)C5CC[C@]43C)C2[C@]1(C)O` (some centres unmarked) [Ilexsaponin A1(9), Ilexsaponin A1]: the half-maximal inhibitory concentration (IC50) on Recombinant human PDE5A worked out at 22.4 µM. Moreover, the “Binding to PDEI (in words)” value in experiment [2] was “low binding efficiency”. The “Enhancement factor with PDEI” value in experiment [2] (n = 3) was 11.68 ± 0.31% and 18.59 ± 0.65%.

For the compound `C[C@@H]1CC[C@]2(C(=O)O)CC[C@]3(C)C(=CCC4[C@@]5(C)CC[C@H](O)[C@](C)(C(=O)O)C5CC[C@]43C)C2[C@]1(C)O` (some centres unmarked) [Ilexgenin A (11), Ilexgenin A], the half-inhibitory concentration (IC50) on Recombinant human PDE5A turned out to be 177 µM. For the same compound, in experiment [2] (n = 3), the “Enhancement factor with PDEI” value was 23.08 ± 0.44% and 30.82 ± 0.31%.

Consider `O=C(C=Cc1ccc(O)c(O)c1)OC1CC(O)(C(=O)O)CC(O)C1OC(=O)C=Cc1ccc(O)c(O)c1` (centres unmarked) [Isochlorogenic acid B (3), Isochlorogenic acid B], for which the IC50 on Recombinant human PDE5A came to 193 µM. Also, in experiment [2] (n = 3), the “Enhancement factor with PDEI” value was 19.15 ± 0.77% and 25.90 ± 1.30%.

Turning to `O=C(C=Cc1ccc(O)c(O)c1)OC1CC(O)(C(=O)O)CC(O)C1OC(=O)C=Cc1ccc(O)c(O)c1` (centres unmarked) [Isochlorogenic acid C (5), Isochlorogenic acid C], the “Activity against PDE5A (in words)” value on Recombinant human PDE5A was “not active”. Moreover, the “Binding to PDEI (in words)” value in experiment [2] was “quite strong bindings to PDEI”. Also, in experiment [2] (n = 3), the “Enhancement factor with PDEI” value is 26.73 ± 0.41% and 40.03 ± 0.14%.

With `C[C@H]1CC[C@]2(C(=O)O)CC[C@]3(C)C(=CC[C@@H]4[C@@]5(C)CC[C@H](O[C@@H]6OC[C@@H](O)[C@H](O)[C@H]6O[C@@H]6O[C@H](CO)[C@@H](O)[C@H](O)[C@H]6O)C(C)(C)[C@@H]5CC[C@]43C)[C@@H]2[C@]1(C)O` [Ilexsaponin B1 (10), Ilexsaponin B1], the IC50 worked out at 854 µM in experiment [1] and 1800 µM on Recombinant human PDE5A. Besides, the “Enhancement factor with PDEI” value in experiment [2] is 9.20 ± 0.62% and 15.54 ± 0.21%.
